Reference: paper PMC11532494 (Nature Communications, 2024)
Where “and” joins values, the source holds several entries; their conditions need not be identical. Identical values can stand only once. Like-named read-outs stand apart in the source and are kept apart here. No end group written: not given here. *: point of attachment. AMC = Cc1cc(=O)oc2cc(N*)ccc12

Assays:
[1] = target: T1, BsAcuC (2c) (Bacillus subtilis, UniProt P39067); assay: Dose-response inhibition assay; assay type: biochemical; conditions: dose-response inhibition assay
T1 construct: made in house; host or cells: E. coli BL21 (DE3)
T1 sequence (P39067 1-387): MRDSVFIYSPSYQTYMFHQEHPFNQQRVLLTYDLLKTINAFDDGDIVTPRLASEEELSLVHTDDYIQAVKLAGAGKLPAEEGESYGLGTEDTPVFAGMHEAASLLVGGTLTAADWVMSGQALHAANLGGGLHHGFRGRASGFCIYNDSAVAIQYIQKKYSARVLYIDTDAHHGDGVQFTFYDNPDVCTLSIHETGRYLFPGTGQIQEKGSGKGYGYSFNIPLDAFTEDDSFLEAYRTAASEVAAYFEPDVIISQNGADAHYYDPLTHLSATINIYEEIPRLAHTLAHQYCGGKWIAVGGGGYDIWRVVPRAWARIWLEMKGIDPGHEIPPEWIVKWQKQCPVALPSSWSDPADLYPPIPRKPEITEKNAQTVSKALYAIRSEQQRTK
Description: Data was transformed to relative enzyme activity (%) compared to control wells without inhibitor, and fitted to sigmoidal functions with variable slope (Eqs. 3, 4 parameters, h: Hill slope) to afford IC50 values. Assuming fast-on/fast-off competitive inhibition, the Cheng–Prusoff equation (Eq. 4) was employed to transform IC50 data into inhibitory constants (Ki), with KM values as determined previously.3 Res.activity=Res.activitybottom+Res.activitytop−Res.activitybottom/1+10^(logIC50−logI)h 4 Ki=IC50/1+[S]/KM

[2] = target: T2, KpHdaH (1b) (Klebsiella pneumoniae, UniProt A0A377Z5F6); assay: biochemical; conditions: for IC50: 15 nM enzyme, 60 min, 37 °C
[3] = target: T3, LpApaH (3) (Legionella pneumophila, UniProt A0A2S6EWV0); assay: biochemical
[4] = target: T4, RwDmhA (1b) (Rhizorhabdus wittichii, UniProt A0A067XIQ6); assay: biochemical; conditions: for IC50: 30 nM enzyme, 60 min, 37 °C
[5] = target: T1, BsAcuC (2c); assay: Inhibitor screening assay (10 µM or 1 µM); assay type: biochemical
Description: Data was transformed to relative enzyme activity (%) compared to control wells without inhibitors.

[6] = target: T5, LcApaH (3) (Legionella cherrii, UniProt A0A0W0SGS1); assay: biochemical; conditions: for IC50: 0.5 nM enzyme, 30 min, 37 °C
[7] = target: PrpH (propanil hydrolase) of Rhizorhabdus sp. (Rhizorhabdus sp.); assay: crystal structure
[8] = target: PsApaH_(1-342) (4) (Pseudomonas sp.); assay: crystal structure
[9] = target: Pseudomonas sp. acetylpolyamine amidohydrolase ApaH (Pseudomonas sp.); assay: SEC
[10] = target: T2, KpHdaH (1b); assay type: biochemical
[11] = target: T3, LpApaH (3); assay type: biochemical
[12] = target: T4, RwDmhA (1b); assay type: biochemical
[13] = target: T5, LcApaH (3); assay type: biochemical
[14] = target: T1, BsAcuC (2c); assay: Substrate screening assay (acyl-peptide-AMC); assay type: biochemical
Experimental: (§1) Experiments with SIRT2 and SIRT5 were supplemented with NAD^+ (500 µM). Thereafter, a solution of trypsin (25 µL, 5.0 mg/mL; final concentration of 2.5 mg/mL) was added, and the development of the assay was allowed to proceed for 90 min at room temperature before fluorescence analysis. […] To this end, a single category is given to all conversions >48% on the heatmap. […] For the H4-derived peptide LGKbio no positive control was available.

[15] = system: Controls; assay type: biochemical
[16] = system: VsHdaH (1b); assay type: biochemical, Vibrio sp.
[17] = system: VcHdaH (5b); assay type: biochemical, Vibrio cholerae
[18] = target: PsApaH (4) (Pseudomonas sp. M30-35, UniProt A0A1Y0KY79); assay type: biochemical
Experimental: as §1

[19] = system: Controls; assay type: biochemical; remark: listed apart in the source
[20] = system: RsPrpH (1b); assay: Substrate screening assay (acyl-peptide-AMC); assay type: biochemical, Rhizorhabdus sp.
[21] = target: Δ20-37 KpHdaH (Klebsiella pneumoniae)
[22] = target: the molecule itself; assay: crystal structure
[23] = target: Pseudomonas sp. acetylpolyamine amidohydrolase ApaH (Pseudomonas sp.); assay: enzyme kinetics with substrate in
[24] = target: DmhA (dimethoate hydrolase) of Rhizorhabdus wittichii (Rhizorhabdus wittichii); assay: enzyme kinetics with substrate in
[25] = target: T6, Legionella cherrii acetyl-polyamine aminohydrolase (Legionella cherrii); assay: enzyme kinetics with substrate inhibition (Fluor-de-Lys assay)
T6 sequence: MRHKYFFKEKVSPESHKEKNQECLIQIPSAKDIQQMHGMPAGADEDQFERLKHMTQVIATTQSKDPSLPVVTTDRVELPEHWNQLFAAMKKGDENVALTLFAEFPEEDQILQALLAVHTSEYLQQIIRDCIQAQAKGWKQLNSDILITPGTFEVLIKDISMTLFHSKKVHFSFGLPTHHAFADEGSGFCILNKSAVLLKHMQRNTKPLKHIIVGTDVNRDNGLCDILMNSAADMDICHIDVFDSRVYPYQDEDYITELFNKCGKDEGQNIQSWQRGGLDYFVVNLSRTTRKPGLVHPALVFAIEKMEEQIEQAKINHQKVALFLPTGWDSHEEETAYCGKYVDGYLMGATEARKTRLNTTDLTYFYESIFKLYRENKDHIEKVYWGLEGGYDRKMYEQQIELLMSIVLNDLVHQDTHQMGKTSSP

[26] = target: T7, Legionella pneumophila acetyl-polyamine aminohydrolase (Legionella pneumophila); assay: as above
T7 sequence: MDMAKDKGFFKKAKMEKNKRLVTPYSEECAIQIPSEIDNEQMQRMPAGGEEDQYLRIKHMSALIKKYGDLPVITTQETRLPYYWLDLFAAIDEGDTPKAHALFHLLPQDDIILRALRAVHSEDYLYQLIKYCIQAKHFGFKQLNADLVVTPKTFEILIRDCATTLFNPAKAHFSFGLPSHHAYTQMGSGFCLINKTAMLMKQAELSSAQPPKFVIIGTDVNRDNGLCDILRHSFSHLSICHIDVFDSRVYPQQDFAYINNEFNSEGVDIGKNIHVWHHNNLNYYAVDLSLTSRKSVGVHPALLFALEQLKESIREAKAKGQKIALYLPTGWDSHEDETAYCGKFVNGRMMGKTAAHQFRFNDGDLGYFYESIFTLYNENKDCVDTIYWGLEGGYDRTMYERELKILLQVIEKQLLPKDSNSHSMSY

[27] = Log[IC50(M)], decadic log of IC50, 60 µM QPKKac
[28] = substrate screening, mean of two measurements
[29] = substrate screening, measurement 1 of two
[30] = substrate screening, measurement 2 of two

Molecule: O=C(CCCCCCC(=O)Nc1ccccc1)NO [SAHA, suberoylanilide hydroxamic acid]
- inhibition of BsAcuC (2c), in words [1]: not detecting any inhibition
- IC50 ([2]; IC50, 60 µM QPKKac): 9.71e-08 M
- Ki ([2]; Ki, calculated using the Cheng–Prusoff equation, 60 µM QPKKac): 0.0224 µM
- IC50 [2, 27]: 9.77e-08 M
- IC50 ([3]; IC50): 6.69e-07 M
- Ki ([3]; Ki): 0.23 µM
- IC50 ([3]; Log[IC50(M)]): 6.61e-07 M
- Ki [4]: 0.0416 µM
- IC50 ([4]; IC50, 60 µM QPKKac): 1.01e-07 M
- IC50 [4, 27]: 1e-07 M
- remaining activity at 1 µM ([5]; 1 µM inhibitor, mean of n = 2, 40 µM LGKac): 84.7%
- remaining activity at 1 µM ([5]; 1 µM inhibitor, single measurements (two columns), 40 µM LGKac, 60 min, 37 °C): 83.2%
- remaining activity at 10 µM ([5]; 10 µM inhibitor, mean of n = 2, 40 µM LGKac): 60.6%
- remaining activity at 10 µM ([5]; 10 µM inhibitor, single measurements (two columns), 40 µM LGKac, 60 min, 37 °C): 56.2%
- remaining activity at 1 µM ([5]; BsAcuC (2c), inhibitor 1 µM, individual replicates): 83.2%
- remaining activity at 1 µM ([5]; BsAcuC (2c), inhibitor 1 µM, mean): 84.7%
- remaining activity at 10 µM ([5]; BsAcuC (2c), inhibitor 10 µM, individual replicates): 56.2%
- remaining activity at 10 µM ([5]; BsAcuC (2c), inhibitor 10 µM, mean): 60.6%
- inhibition of BsAcuC (2c) in the initial screen, in words ([5]; pre-screening at 10 µM or 1 µM inhibitor): only weakly inhibited
- IC50 ([6]; IC50, 40 µM LGKac): 8.09e-07 M
- Ki ([6]; Ki, calculated using the Cheng–Prusoff equation, 40 µM LGKac): 0.307 µM
- IC50 ([6]; Log[IC50(M)], decadic log of IC50, 40 µM LGKac): 8.13e-07 M

Molecule: PrpH (propanil hydrolase) of Rhizorhabdus sp. (enzyme)
- stoichiometry N [7]: 4

Molecule: PsApaH_(1-342) (4) (domain or fragment)
- stoichiometry N [8]: 2

Molecule: Pseudomonas sp. acetylpolyamine amidohydrolase ApaH (enzyme)
- stoichiometry N [9]: 2

Molecule: QPKKpal (QPKK-{AMC}; not fully specified (residue 4); printed as QPKKpal; also: palmitoyl-lysine (which Lys not given here); UniProt P04637 317-320, looked up, fragment)
- RFU means, KpHdaH (1b) ([10]; means of two measurements): 2.5 RFU
- RFU*2 means, KpHdaH (1b) ([10]; means of two measurements): 5 RFU*2
- [AMC] (nM), KpHdaH (1b), means [10, 28]: 2.44 nM
- [AMC] (nM), KpHdaH (1b) [10, 29]: 8.79 nM
- [AMC] (nM), KpHdaH (1b) [10, 30]: -3.91 nM
- RFU means, LpApaH (3) [11]: 16 RFU
- RFU*2 means, LpApaH (3) [11]: 32 RFU*2
- [AMC] (nM), LpApaH (3), means [11]: 15.63 nM
- RFU means, RwDmhA (1b) [12]: -48 RFU
- RFU*2 means, RwDmhA (1b) [12]: -96 RFU*2
- [AMC] (nM), RwDmhA (1b), means [12]: -46.88 nM
- RFU means, LcApaH (3) [13]: 26.5 RFU
- RFU*2 means, LcApaH (3) [13]: 53 RFU*2
- [AMC] (nM), LcApaH (3), means [13]: 25.88 nM
- RFU means, BsAcuC (2c) ([14]; means of two measurements): 77 RFU
- RFU*2 means, BsAcuC (2c) ([14]; means of two measurements): 154 RFU*2
- [AMC] (nM), BsAcuC (2c), means [14, 28]: 75.20 nM
- [AMC] (nM), controls, means [15]: 9292.48 nM
- RFU means, VsHdaH (1b) ([16]; means of two measurements): 11 RFU
- RFU*2 means, VsHdaH (1b) ([16]; means of two measurements): 22 RFU*2
- [AMC] (nM), VsHdaH (1b), means [16, 28]: 10.74 nM
- [AMC] (nM), VsHdaH (1b) [16, 29]: 40.04 nM
- [AMC] (nM), VsHdaH (1b) [16, 30]: -18.55 nM
- RFU means, VcHdaH (5b) ([17]; means of two measurements): -8.5 RFU
- RFU*2 means, VcHdaH (5b) ([17]; means of two measurements): -17 RFU*2
- [AMC] (nM), VcHdaH (5b), means [17, 28]: -8.30 nM
- RFU means, PsApaH (4) ([18]; means of two measurements): 27 RFU
- RFU*2 means, PsApaH (4) ([18]; means of two measurements): 54 RFU*2
- [AMC] (nM), PsApaH (4), means [18, 28]: 26.37 nM
- [AMC] (nM), PsApaH (4) [18, 29]: 39.06 nM
- [AMC] (nM), PsApaH (4) [18, 30]: 13.67 nM
- RFU means, controls [19]: 9515.5 RFU
- RFU*2, controls [19]: 16530 RFU*2 and 21532 RFU*2
- RFU*2 means, controls [19]: 19031 RFU*2
- RFU, controls [19]: 8265 RFU and 10766 RFU
- RFU means, RsPrpH (1b) [20]: -58.5 RFU
- RFU*2 means, RsPrpH (1b) [20]: -117 RFU*2
- [AMC] (nM), RsPrpH (1b), means [20]: -57.13 nM

Molecule: Δ20-37 KpHdaH (from UniProt A0A377Z5F6 1-371) (enzyme)
- stoichiometry N [21]: 2

B1: DmhA (dimethoate hydrolase) of Rhizorhabdus wittichii (enzyme)
chain: MARTGFYTDERTFWHATGMQALFLPVGDWVQPPNGTAGADTPDSKRRLLNLAHASGLIRKLTLPEAIPATVEDVCRVHPRDYIDRFKATSDAGGGDLGHLAPFSKGGYEIAMLSCGLAIAAVDDVLSGKVDNAYALCRPAGHHCLADTPMGFCLLANIPIAIEAAKARHGISRVAVVDWDVHHGNGTQSIFYDRADVLTISIHQDRCFPPGYSGAEDRGEGAGLGYNLNVPLPAGAGHDAYVQAFDDIVVPALDDFKPDLIIVASGLDANSVDPLARMLLHSESYRLLTQKMLDAAARLCGGKLVVVHEGGYAEAYVPFCGHALLEALSGERTAVVDPVLEMAEAWQPGPEAAAFHRQWIDRLVADLGK
notes: also called RwDmhA (1b); RwDmhA
- stoichiometry N [22]: 4

Molecule: QPKK [p53-peptide QPKKac]
- Ki [23]: 122 µM
- Ki [24]: 154 µM
- Ki [25]: 13 µM
- Ki [26]: 44 µM

B2: Klebsiella pneumoniae HdaH (enzyme, UniProt A0A377Z5F6 1-371, looked up)
chain: MKRKTGFFFDERCFWHSTGLHAVTLPVGGWVQPPAGGGHAESPETKRRMKNLMDVSGLTPQLALRSAAPASLEDLRRIHPDSYLERFKAISDNGGGMLGKEAPLGPGSYEIACLSAGLACAAVEAVLKGELDNAYSLSRPPGHHCLPDQSMGFCFLANIPIAVERAKAQLGLGKVAIIDWDVHHGNGTQHIYLQRDDVLTISLHQDGCFPPGYAGEDDRGVGAGEGYNINIPLLAGAGDDSWRYALETIVIPALARFEPELIIIACGYDANAMDPLARMQLHSDSFRAMTEQVQQAADRLCGGKLVMVHEGGYAESYVPFCGLAVMEALSGIRTEVQDPLLEFIQQQQPRATFAQFQRQAIDRLAQQFGLQ
notes: also called KpHdaH (1b); KpHdaH
- stoichiometry N [22]: 4
